Data reported in patent US10499642B2, “Isoxazoline-substituted benzamides and analogues as insecticides” (SYNGENTA PARTICIPATIONS AG, priority 2015, dated 2019).
Read-outs that look alike come from different tables or passages of the source.

What was measured:
Assay type in all cases: in vivo
Plutella xylostella = Plutella xylostella (diamond back moth) artificial diet test; details: 120 h, read-out: effect in at least one of the two categories (mortality or growth inhibition)
How it was run: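 At a 200 ppm rate, test solutions were applied to artificial diet and allowed to dry before second-instar larvae were added. Five days later, larval mortality and growth inhibition were rated against untreated samples.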

Diabrotica Balteata = experiment: Diabrotica balteata (corn root worm) maize sprout test; details: 96 h, read-out: effect in at least one of the two categories (mortality or growth inhibition)
How it was run: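 Scoring covered both mortality and growth inhibition relative to untreated controls, 4 days post-infestation. Test solutions at 200 ppm, diluted in water from 10′000 ppm DMSO stocks, were sprayed onto agar-held maize sprouts, which after drying received 6 to 10 L2 larvae each well.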

Spodoptera littoralis = Spodoptera littoralis (Egyptian cotton leaf worm) cotton leaf disc test; details: foliar, 72 h, read-out: control (at least one of mortality, anti-feedant effect, and growth inhibition)
How it was run: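 Five first-instar larvae per disc were placed on dried, sprayed cotton leaf discs held on agar. Test solutions were aqueous, made from 10′000 ppm DMSO stocks. At day 3, control was counted when mortality, feeding deterrence or growth inhibition exceeded the untreated discs.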

Thrips tabaci = Thrips tabaci (onion thrips) sunflower leaf disc test; details: foliar, 144 h
Procedure: Thrips tabaci (Onion Thrips):
Sunflower leaf discs were placed on agar in 24-well microtiter plates and sprayed with aqueous test solutions prepared from 10′000 ppm DMSO stock solutions. After drying the leaf discs were infested with a thrips population of mixed ages. The samples were assessed for mortality 6 days after infestation.

Myzus persicae = Myzus persicae (green peach aphid) sunflower leaf disc test; details: foliar, 144 h
Procedure: Myzus persicae (Green Peach Aphid):
Sunflower leaf discs were placed on agar in a 24-well microtiter plate and sprayed with test solutions at an application rate of 200 ppm. After drying, the leaf discs were infested with an aphid population of mixed ages. After an incubation period of 6 days after treatment, samples were checked for mortality. The following compounds gave at least 80% mortality of Myzus persicae: […]

Tetranychus urticae = Tetranychus urticae (two-spotted spider mite) bean leaf disc test; details: foliar, 192 h
Procedure: Tetranychus urticae (Two-Spotted Spider Mite):
Bean leaf discs on agar in 24-well microtiter plates were sprayed with aqueous test solutions prepared from 10′000 ppm DMSO stock solutions. After drying the leaf discs were infested with a mite population of mixed ages. The samples were assessed for mortality on mixed population (mobile stages) 8 days after infestation.

CC1=NOC(NC(=O)c2ccc(C3=NO[C@@](c4cc(Cl)c(F)c(Cl)c4)(C(F)(F)F)C3)cc2C)C1 (stereo partly drawn) [Compound A009, 4-[(5S)-5-(3,5-dichloro-4-fluoro-phenyl)-5-(trifluoromethyl)-4H-isoxazol-3-yl]-2-methyl-N-(3-methyl-4,5-dihydroisoxazol-5-yl)benzamide]
≥ 80%: percent effect (mortality or growth inhibition) at 200 ppm (Plutella xylostella) | percent effect (mortality or growth inhibition) at 200 ppm (Diabrotica Balteata) | percent control (mortality, anti-feedant effect or growth inhibition) at 200 ppm (Spodoptera littoralis) | mortality at 200 ppm (Thrips tabaci) | mortality at 200 ppm (Myzus persicae) | mortality at 200 ppm (Tetranychus urticae)

CNC1=NOC(NC(=O)c2ccc(C3=NO[C@@](c4cc(Cl)c(F)c(Cl)c4)(C(F)(F)F)C3)cc2C)C1 (stereo partly drawn) [Compound A120]
≥ 80%: percent effect (mortality or growth inhibition) at 200 ppm (Plutella xylostella) | percent effect (mortality or growth inhibition) at 200 ppm (Diabrotica Balteata) | percent control (mortality, anti-feedant effect or growth inhibition) at 200 ppm (Spodoptera littoralis) | mortality at 200 ppm (Thrips tabaci) | mortality at 200 ppm (Myzus persicae) | mortality at 200 ppm (Tetranychus urticae)

Cc1cc(C2=NO[C@@](c3cc(Cl)c(F)c(Cl)c3)(C(F)(F)F)C2)ccc1C(=O)NC1CC(C2CC2)=NO1 (stereo partly drawn) [Compound A032, N-(3-cyclopropyl-4,5-dihydroisoxazol-5-yl)-4-[(5S)-5-(3,5-dichloro-4-fluoro-phenyl)-5-(trifluoromethyl)-4H-isoxazol-3-yl]-2-methyl-benzamide]
≥ 80%: percent effect (mortality or growth inhibition) at 200 ppm (Plutella xylostella) | percent effect (mortality or growth inhibition) at 200 ppm (Diabrotica Balteata) | percent control (mortality, anti-feedant effect or growth inhibition) at 200 ppm (Spodoptera littoralis) | mortality at 200 ppm (Thrips tabaci) | mortality at 200 ppm (Myzus persicae) | mortality at 200 ppm (Tetranychus urticae)

CC1=NOC(N(C=O)C(=O)c2ccc(C3=NO[C@@](c4cc(Cl)c(Cl)c(Cl)c4)(C(F)(F)F)C3)cc2Cl)C1 (stereo partly drawn) [Compound A024, 2-chloro-N-formyl-N-(3-methyl-4,5-dihydroisoxazol-5-yl)-4-[(5S)-5-(3,4,5-trichlorophenyl)-5-(trifluoromethyl)-4H-isoxazol-3-yl]benzamide]
≥ 80%: percent effect (mortality or growth inhibition) at 200 ppm (Plutella xylostella) | percent effect (mortality or growth inhibition) at 200 ppm (Diabrotica Balteata) | percent control (mortality, anti-feedant effect or growth inhibition) at 200 ppm (Spodoptera littoralis) | mortality at 200 ppm (Thrips tabaci) | mortality at 200 ppm (Myzus persicae) | mortality at 200 ppm (Tetranychus urticae)

COC1=NOC(NC(=O)c2ccc(C3=NO[C@@](c4cc(Cl)c(F)c(Cl)c4)(C(F)(F)F)C3)cc2Cl)C1 (stereo partly drawn) [Compound A045]
≥ 80%: percent effect (mortality or growth inhibition) at 200 ppm (Plutella xylostella) | percent effect (mortality or growth inhibition) at 200 ppm (Diabrotica Balteata) | percent control (mortality, anti-feedant effect or growth inhibition) at 200 ppm (Spodoptera littoralis) | mortality at 200 ppm (Thrips tabaci) | mortality at 200 ppm (Myzus persicae) | mortality at 200 ppm (Tetranychus urticae)

COC1=NOC(NC(=O)c2ccc(C3=NO[C@@](c4cc(Cl)cc(Cl)c4)(C(F)(F)F)C3)cc2Cl)C1 (stereo partly drawn) [Compound A062]
≥ 80%: percent effect (mortality or growth inhibition) at 200 ppm (Plutella xylostella) | percent effect (mortality or growth inhibition) at 200 ppm (Diabrotica Balteata) | percent control (mortality, anti-feedant effect or growth inhibition) at 200 ppm (Spodoptera littoralis) | mortality at 200 ppm (Thrips tabaci) | mortality at 200 ppm (Myzus persicae) | mortality at 200 ppm (Tetranychus urticae)

Cc1cc(C2=NO[C@@](c3cc(Cl)c(F)c(Cl)c3)(C(F)(F)F)C2)ccc1C(=O)N(C=O)C1CC(C2CC2)=NO1 (stereo partly drawn) [Compound A031, N-(3-cyclopropyl-4,5-dihydroisoxazol-5-yl)-4-[(5S)-5-(3,5-dichloro-4-fluoro-phenyl)-5-(trifluoromethyl)-4H-isoxazol-3-yl]-N-formyl-2-methyl-benzamide]
≥ 80%: percent effect (mortality or growth inhibition) at 200 ppm (Plutella xylostella) | percent effect (mortality or growth inhibition) at 200 ppm (Diabrotica Balteata) | percent control (mortality, anti-feedant effect or growth inhibition) at 200 ppm (Spodoptera littoralis) | mortality at 200 ppm (Thrips tabaci) | mortality at 200 ppm (Myzus persicae) | mortality at 200 ppm (Tetranychus urticae)

Cc1cc(C2=NO[C@@](c3cc(Cl)c(Cl)c(Cl)c3)(C(F)(F)F)C2)ccc1C(=O)NC1CC(OCCC(C)C)=NO1 (stereo partly drawn) [Compound A106, N-(3-isopentyloxy-4,5-dihydroisoxazol-5-yl)-2-methyl-4-[(5S)-5-(3,4,5-trichlorophenyl)-5-(trifluoromethyl)-4H-isoxazol-3-yl]benzamide]
≥ 80%: percent effect (mortality or growth inhibition) at 200 ppm (Plutella xylostella) | percent effect (mortality or growth inhibition) at 200 ppm (Diabrotica Balteata) | percent control (mortality, anti-feedant effect or growth inhibition) at 200 ppm (Spodoptera littoralis) | mortality at 200 ppm (Thrips tabaci) | mortality at 200 ppm (Myzus persicae) | mortality at 200 ppm (Tetranychus urticae)

Cc1cc(C2=NO[C@@](c3cc(Cl)c(F)c(Cl)c3)(C(F)(F)F)C2)ccc1C(=O)N(C=O)C1CC(Br)=NO1 (stereo partly drawn) [Compound A002, N-(3-bromo-4,5-dihydroisoxazol-5-yl)-4-[(5S)-5-(3,5-dichloro-4-fluoro-phenyl)-5-(trifluoromethyl)-4H-isoxazol-3-yl]-N-formyl-2-methyl-benzamide]
≥ 80%: percent effect (mortality or growth inhibition) at 200 ppm (Plutella xylostella) | percent effect (mortality or growth inhibition) at 200 ppm (Diabrotica Balteata) | percent control (mortality, anti-feedant effect or growth inhibition) at 200 ppm (Spodoptera littoralis) | mortality at 200 ppm (Thrips tabaci) | mortality at 200 ppm (Myzus persicae) | mortality at 200 ppm (Tetranychus urticae)

CCNC(=O)COC1=NOC(NC(=O)c2ccc(C3=NO[C@@](c4cc(Cl)c(Cl)c(Cl)c4)(C(F)(F)F)C3)cc2C)C1 (stereo partly drawn) [Compound A115, N-[3-[2-(ethylamino)-2-oxo-ethoxy]-4,5-dihydroisoxazol-5-yl]-2-methyl-4-[(5S)-5-(3,4,5-trichlorophenyl)-5-(trifluoromethyl)-4H-isoxazol-3-yl]benzamide]
≥ 80%: percent effect (mortality or growth inhibition) at 200 ppm (Plutella xylostella) | percent effect (mortality or growth inhibition) at 200 ppm (Diabrotica Balteata) | percent control (mortality, anti-feedant effect or growth inhibition) at 200 ppm (Spodoptera littoralis) | mortality at 200 ppm (Thrips tabaci) | mortality at 200 ppm (Myzus persicae) | mortality at 200 ppm (Tetranychus urticae)

CC1=NOC(N(C=O)C(=O)c2ccc(C3=NO[C@@](c4cc(Cl)c(F)c(Cl)c4)(C(F)(F)F)C3)cc2Cl)C1 (stereo partly drawn) [Compound A033, 2-chloro-4-[(5S)-5-(3,5-dichloro-4-fluoro-phenyl)-5-(trifluoromethyl)-4H-isoxazol-3-yl]-N-formyl-N-(3-methyl-4,5-dihydroisoxazol-5-yl)benzamide]
≥ 80%: percent effect (mortality or growth inhibition) at 200 ppm (Plutella xylostella) | percent effect (mortality or growth inhibition) at 200 ppm (Diabrotica Balteata) | percent control (mortality, anti-feedant effect or growth inhibition) at 200 ppm (Spodoptera littoralis) | mortality at 200 ppm (Thrips tabaci) | mortality at 200 ppm (Myzus persicae) | mortality at 200 ppm (Tetranychus urticae)

Cc1cc(C2=NO[C@@](c3cc(Br)cc(C(F)(F)F)c3)(C(F)(F)F)C2)ccc1C(=O)NC1CC(Cl)=NO1 (stereo partly drawn) [Compound A021, 4-[(5S)-5-[3-bromo-5-(trifluoromethyl)phenyl]-5-(trifluoromethyl)-4H-isoxazol-3-yl]-N-(3-chloro-4,5-dihydroisoxazol-5-yl)-2-methyl-benzamide]
≥ 80%: percent effect (mortality or growth inhibition) at 200 ppm (Plutella xylostella; application rate 200 ppm, artificial diet, L2 larvae, 5 days after infestation) | percent effect (mortality or growth inhibition) at 200 ppm (Diabrotica Balteata; application rate 200 ppm, maize sprouts, L2 larvae, 4 days after infestation) | percent control (mortality, anti-feedant effect or growth inhibition) at 200 ppm (Spodoptera littoralis; application rate 200 ppm, cotton leaf discs, L1 larvae, 3 days after infestation) | mortality at 200 ppm (Thrips tabaci; application rate 200 ppm, sunflower leaf discs, population of mixed ages, 6 days after infestation, read-out: mortality) | mortality at 200 ppm (Myzus persicae; application rate 200 ppm, sunflower leaf discs, population of mixed ages, 6 days after treatment, read-out: mortality) | mortality at 200 ppm (Tetranychus urticae; application rate 200 ppm, bean leaf discs, mixed population (mobile stages), 8 days after infestation, read-out: mortality)

CCOC1=NOC(NC(=O)c2ccc(C3=NO[C@@](c4cc(Cl)cc(C(F)(F)F)c4)(C(F)(F)F)C3)cc2Cl)C1 (stereo partly drawn) [Compound A066]
≥ 80%: percent effect (mortality or growth inhibition) at 200 ppm (Plutella xylostella) | percent effect (mortality or growth inhibition) at 200 ppm (Diabrotica Balteata) | percent control (mortality, anti-feedant effect or growth inhibition) at 200 ppm (Spodoptera littoralis) | mortality at 200 ppm (Thrips tabaci) | mortality at 200 ppm (Myzus persicae) | mortality at 200 ppm (Tetranychus urticae)
